Columns and labels:
[1] = tested on: glutathione-biosynthesis pathway; assay: Administration of GCS inhibitor BSO and GCS activator DEM to mice; metabolites in the livers by CE-TOFMS; format: in vivo; details: mouse liver
Protocol: Male mice were fasted overnight and anesthetized by an intraperitoneal injection of pentobarbital sodium (60 mg/Kg of body weight). Then, the mice were intraperitoneally injected with BSO, which is aγ-glutamyl cysteine synthase (GCS) inhibitor, and diethylmaleate (DEM), which is an electrophile (GCS activator), both at a dose of 4 mmol/kg of body weight (888 mg of BSO, 688 mg of DEM). The mouse as a healthy subject was intraperitoneally injected with physiological saline. Liver specimens (about 300 mg) were excised from the mice 1 hour after administration (5 times each).
The liver specimens (about 300 mg) excised from the mice were immediately placed in 1 ml of methanol containing an internal standard substance and were homogenized to inactivate an enzyme, thereby stopping enhancement of metabolism. After 500 μl of pure water was added to the mixture, 300 μl of solution was taken out. To this solution, 200 μl of chloroform was added. After thorough stirring, the solution was further centrifuged at 15000 rpm for 15 minutes at 4° C. After allowing to stand, 300 μl of separated water-methanol phase was passed through a 5 kDa molecular weight cutoff filter for centrifugal ultrafiltration to deproteinize it. […]
The method described below was used to confirm that the detected γ-Glu-X peptides and γ-Glu-X-Gly peptides were synthesized in a glutathione-biosynthesis pathway.

[2] = tested on: glutathione-biosynthesis pathway; assay: Administration of BSO and DEM to mice; γ-Glu-X and γ-Glu-X-Gly peptides in the murine serum; format: in vivo; details: mouse serum, compared to the normal state
Protocol: Male mice were fasted overnight and anesthetized by an intraperitoneal injection of pentobarbital sodium (60 mg/Kg of body weight). Then, the mice were intraperitoneally injected with BSO, which is aγ-glutamyl cysteine synthase (GCS) inhibitor, and diethylmaleate (DEM), which is an electrophile (GCS activator), both at a dose of 4 mmol/kg of body weight (888 mg of BSO, 688 mg of DEM). The mouse as a healthy subject was intraperitoneally injected with physiological saline. Liver specimens (about 300 mg) were excised from the mice 1 hour after administration (5 times each). On the other hand, regarding the substances in the murine serum, γ-Glu-X peptides and γ-Glu-X-Gly peptides that were decreased by administration of BSO and were increased by administration of an electronic substance, DEM, compared to the normal state were only γ-[…]AB and ophthalmic acid (γ-[…]AB-Gly) (FIG. 22). Therefore, it is expected that, in the case of a mouse, only γ-[…]AB and ophthalmic acid are increased in the blood when glutathione is decreased because of the oxidative stress caused by electrophiles or the like.

[3] = tested on: glutathione; details: mouse, large quantities of APAP, cited from earlier work

SMILES | amount of glutathione in the livers ([1]; 1 hour after i.p. 4 mmol/kg, compared to the healthy mouse) | γ-Glu-X and γ-Glu-X-Gly peptidic substances in the liver other than γ-Glu-Cys, GSH and γ-Glu-Ser-Gly ([1]; compared to the normal) | γ-Glu-2AB and ophthalmic acid (γ-Glu-2AB-Gly) in the murine serum [2] | ophthalmic acid ([3]; in inverse proportion to the glutathione level) | glutathione [3]
CCCCS(=N)(=O)CCC(N)C(=O)O (centres unmarked) [BSO, buthionine sulfoximine] | decreased rapidly | decreased | decreased | – | –
CC(=O)Nc1ccc(O)cc1 [APAP, Acetaminophen] | – | – | – | increased rapidly | decreased

From patent US20130116148A1, “LIVER DISEASE MARKER, METHOD AND APPARATUS FOR MEASURING THE SAME, AND METHOD FOR ASSAYING PHARMACEUTICAL PREPARATION” (KEIO UNIVERSITY, priority 2010, published 2013)
